According to patent publication US20140308317A1, “Polymeric Compounds And Methods Of Making And Using The Same” (CELLCEUTIX CORPORATION, priority 2012, published 2014):
Values after ≈ are worked out from the molar mass of the structure shown. Where two headings read alike, the source gives them in different places.

Tests used:
[1] = test system: E. Coli ATCC 25922; assay: Minimum Inhibitory Concentration (MIC), modified microbroth dilution; format: cell-based; conditions: E. coli (25922), overnight incubation (18 hours); for MIC50: Escherichia coli, ATCC25922, read-out: MIC50 E. coli
[2] = test system: Staphylococcus aureus ATCC 27660; assay: as above; format: cell-based; conditions: S. aureus (27660), overnight incubation (18 hours); for MIC50: Staphylococcus aureus, ATCC27660, read-out: MIC50 S. aureus
[3] = test system: Enterococcus faecalis ATCC 29212; assay: as above; format: cell-based; conditions: E. faecalis (29212), overnight incubation (18 hours); for MIC50: Enterococcus faecalis, ATCC29212, read-out: MIC50 E. faecalis
[4] = test system: Pseudomonas aeruginosa ATCC 10145; assay: as above; format: cell-based; conditions: P. aeruginosa (10145), overnight incubation (18 hours); for MIC50: Pseudomonas aeruginosa, ATCC10145, read-out: MIC50 P. Aeruginosa
[5] = test system: Klebsiella pneumoniae ATCC 13883; assay: as above; format: cell-based; conditions: K. pneumoniae (13883), overnight incubation (18 hours); for MIC50: Klebsiella pneumoniae, ATCC13883, read-out: MIC50 K. Pnuemnoiae
[6] = test system: NIH/3T3 cells, CRL-1658; assay: Cytotoxicity colorimetric (tetrazolium) assay; format: cell-based, mouse
Experimental: (§1) Cytotoxicity of the compounds was evaluated in a colorimetric assay using a transformed human liver cell line (HepG2, HB-8065) and an embryonic mouse cell line (NIH/3T3 cells, CRL-1658). This assay measures the bioreduction of a novel tetrazolium compound to a soluble formazan product by viable cells. HepG2 cells were seeded in 96 well plates at 2×10^4 cells/well in MEM medium with 10% fetal bovine serum (FBS) 24 hours prior to use. NIH/3T3 cells were seeded in 96 well plates at 2×10^4 cells/well in DMEM medium with 10% bovine calf serum (BCS) 24 hours prior to use. Cell monolayers were rinsed in serum-free media and incubated for one hour with compounds in serum-free media. After incubation, the media is replaced with serum supplemented media and live cells were measured using the Cell Titer 96 Aqueous […] Assay kit (Promega, Madison, Wis.). EC50 values were determined using a four parameter logistic equation: Y=Bottom+(Top-Bottom)/(1+10̂((LogEC50−X)*HillSlope)).
(§2) Actual results from a representative cytotoxicity assay are shown below in Table 2. Data is expressed as EC50 in μg/mL.

[7] = test system: HepG2, HB-8065; assay: Cytotoxicity colorimetric (tetrazolium) assay; format: cell-based, human
Experimental: as §1, §2

[8] = Cytotoxicity colorimetric (tetrazolium) assay; format: cell-based, mouse; conditions: mouse, NIH/3T3 cells (CRL-1658), NIH/3T3 cells; one hour with compound in serum-free media
Experimental: as §1, §2

[9] = Cytotoxicity colorimetric (tetrazolium) assay; format: cell-based, human; conditions: human, HepG2 cells (HB-8065), HepG2 cells; one hour with compound in serum-free media
Experimental: as §1, §2

[10] = NIH/3T3 cells, one hour with compound in serum-free media
[11] = HepG2 cells, one hour with compound in serum-free media

| SMILES | MIC50 E. coli [1] | MIC50 S. aureus [2] | MIC50 E. faecalis [3] | MIC50 P. Aeruginosa [4] | MIC50 K. Pnuemnoiae [5] | EC50 NIH 3T3 (cytotoxicity) [6, 10] | EC50 HepG2 (cytotoxicity) [7, 11] | EC50 NIH 3T3 (cytotoxicity) [6] | EC50 HepG2 (cytotoxicity) [7] | MIC50 [1] | MIC50 [2] | MIC50 [3] | MIC50 [4] | MIC50 [5] | EC50 at 1 h [8] | EC50 at 1 h [9] |
| --- | --- | --- | --- | --- | --- | --- | --- | --- | --- | --- | --- | --- | --- | --- | --- | --- |
| NCCCOc1cc(-c2ccc3sc4ccc(-c5cc(OCCCN)c(OCCCN)c(OCCCN)c5)cc4c3c2)cc(OCCCN)c1OCCCN [Compound 184] | 6.25 mg/L (≈ 8.06 µM) | 1.56 mg/L (≈ 2.01 µM) | 6.25 mg/L (≈ 8.06 µM) | 6.25 mg/L (≈ 8.06 µM) | 12.5 mg/L (≈ 16.1 µM) | 57 mg/L (≈ 73.5 µM) | 100 mg/L (≈ 129 µM) | – | – | – | – | – | – | – | – | – |
| NCCCOc1cc(OCCCN)cc(-c2ccc3c(c2)c2ccccc2n3CCCN)c1 [Compound 161] | >50 mg/L | 25 mg/L (≈ 56 µM) | 3.13 mg/L (≈ 7.01 µM) | 50 mg/L (≈ 112 µM) | >50 mg/L | – | – | >1000 mg/L | 790 mg/L (≈ 1770 µM) | – | – | – | – | – | – | – |
| N=C(N)NCC#Cc1cc(C#CCNC(=N)N)cc(-c2cc(-c3cc(C#CCNC(=N)N)cc(C#CCNC(=N)N)c3)cc(C(F)(F)F)c2)c1 [Compound 126] | 6.25 mg/L (≈ 9.21 µM) | 1.56 mg/L (≈ 2.3 µM) | 1.56 mg/L (≈ 2.3 µM) | 6.25 mg/L (≈ 9.21 µM) | 6.25 mg/L (≈ 9.21 µM) | 59.7 mg/L (≈ 88 µM) | – | – | – | – | – | – | – | – | – | – |
| N=C(N)NCCc1cccc(-c2cc(-c3cccc(-c4cc(-c5cccc(CCNC(=N)N)c5)on4)c3)no2)c1 [Compound 129] | – | – | – | – | – | – | – | – | – | 25 mg/L (≈ 46.8 µM) | 0.78 mg/L (≈ 1.46 µM) | 3.13 mg/L (≈ 5.85 µM) | 25 mg/L (≈ 46.8 µM) | 12.5 to 25 mg/L (≈ 23.4 to 46.8 µM) | 35.8 mg/L (≈ 66.9 µM) | 57 mg/L (≈ 107 µM) |
| NCCC#Cc1cc(-c2cc(OCCCN)cc(-c3cc(C#CCCN)cc(C(F)(F)F)c3)c2)cc(C(F)(F)F)c1 [Compound 122] | 3.13 mg/L (≈ 5.46 µM) | 1.56 mg/L (≈ 2.72 µM) | 1.56 mg/L (≈ 2.72 µM) | 12.5 mg/L (≈ 21.8 µM) | 3.13 mg/L (≈ 5.46 µM) | 14.5 mg/L (≈ 25.3 µM) | – | – | – | – | – | – | – | – | – | – |
| NCCc1cccc(-c2coc(-c3cccc(-c4nc(-c5cccc(CCN)c5)co4)c3)n2)c1 [Compound 132] | – | – | – | – | – | – | – | – | – | 12.5 mg/L (≈ 27.7 µM) | 12.5 mg/L (≈ 27.7 µM) | 12.5 mg/L (≈ 27.7 µM) | 25 mg/L (≈ 55.5 µM) | 25 mg/L (≈ 55.5 µM) | 23.5 mg/L (≈ 52.1 µM) | 50.1 mg/L (≈ 111 µM) |
| NCCCOc1cc(OCCCN)cc(-c2ccc(C(F)(F)c3ccc(-c4cc(OCCCN)cc(OCCCN)c4)cc3)cc2)c1 [Compound 166] | – | – | – | – | – | – | – | – | – | 3.13 mg/L (≈ 4.82 µM) | 0.39 mg/L (≈ 0.601 µM) | 1.56 mg/L (≈ 2.4 µM) | 6.25 mg/L (≈ 9.63 µM) | 6.25 mg/L (≈ 9.63 µM) | 84 mg/L (≈ 129 µM) | 137 mg/L (≈ 211 µM) |
| NCCc1cccc(-c2coc(-c3cccc(-c4ncco4)c3)n2)c1 [Compound 133] | – | – | – | – | – | – | – | – | – | > 50 mg/L | 50 mg/L (≈ 151 µM) | 25 mg/L (≈ 75.4 µM) | > 50 mg/L | > 50 mg/L | 70.2 mg/L (≈ 212 µM) | 130 mg/L (≈ 392 µM) |
| NCCCn1c2cc(-c3cccc(N(CCN)CCN)c3)ccc2c2ccc(-c3cccc(N(CCN)CCN)c3)cc21 [Compound 160] | – | – | – | – | – | – | – | – | – | 1.56 mg/L (≈ 2.7 µM) | 0.39 mg/L (≈ 0.674 µM) | 6.25 mg/L (≈ 10.8 µM) | 12.5 mg/L (≈ 21.6 µM) | 6.25 mg/L (≈ 10.8 µM) | 451 mg/L (≈ 779 µM) | 853 mg/L (≈ 1470 µM) |
| N=C(N)NCCc1cc(C#Cc2cc(C#Cc3cc(CCNC(=N)N)cc(CCNC(=N)N)c3)c(F)cc2F)cc(CCNC(=N)N)c1 [Compound 193] | – | – | – | – | – | – | – | – | – | 1.56 mg/L (≈ 2.38 µM) | 0.39 mg/L (≈ 0.596 µM) | 1.56 mg/L (≈ 2.38 µM) | 6.25 mg/L (≈ 9.55 µM) | 1.56 mg/L (≈ 2.38 µM) | 62.4 mg/L (≈ 95.3 µM) | 178 mg/L (≈ 272 µM) |
| N=C(N)NCCc1cccc(-c2coc(-c3cccc(-c4nc(-c5cccc(CCNC(=N)N)c5)co4)c3)n2)c1 [Compound 134] | – | – | – | – | – | – | – | – | – | 12.5 mg/L (≈ 23.4 µM) | 0.78 mg/L (≈ 1.46 µM) | 12.5 mg/L (≈ 23.4 µM) | 25 mg/L (≈ 46.8 µM) | 50 mg/L (≈ 93.5 µM) | 33.4 mg/L (≈ 62.5 µM) | 70.9 mg/L (≈ 133 µM) |
| N=C(N)NCCc1ccc(C#Cc2cccc(C#Cc3ccc(CCNC(=N)N)c(CCNC(=N)N)c3)c2)cc1CCNC(=N)N [Compound 195] | – | – | – | – | – | – | – | – | – | 3.13 mg/L (≈ 5.06 µM) | 0.78 mg/L (≈ 1.26 µM) | 1.56 mg/L (≈ 2.52 µM) | 12.5 mg/L (≈ 20.2 µM) | 6.25 mg/L (≈ 10.1 µM) | 95.8 mg/L (≈ 155 µM) | 163 mg/L (≈ 263 µM) |
| NCC#Cc1cc(C#CCN)cc(-c2cc(-c3cc(C#CCN)cc(C#CCN)c3)cc(C(F)(F)F)c2)c1 [Compound 125] | 12.5 mg/L (≈ 24.5 µM) | 12.5 mg/L (≈ 24.5 µM) | 12.5 mg/L (≈ 24.5 µM) | 12.5 mg/L (≈ 24.5 µM) | 25 mg/L (≈ 49 µM) | 26.1 mg/L (≈ 51.1 µM) | – | – | – | – | – | – | – | – | – | – |
| NCCCOc1cc(OCCCN)cc(-c2ccc3c(c2)C(=O)c2cccc(-c4cc(OCCCN)cc(OCCCN)c4)c2CC3)c1 [Compound 155] | – | – | – | – | – | – | – | – | – | > 50 mg/L | 1.56 mg/L (≈ 2.39 µM) | > 50 mg/L | 25 mg/L (≈ 38.3 µM) | > 50 mg/L | 177 mg/L (≈ 271 µM) | 330 mg/L (≈ 505 µM) |
| NCCc1cc(C#Cc2cc(C#Cc3cc(CCN)cc(CCN)c3)c(F)cc2F)cc(CCN)c1 [Compound 192] | – | – | – | – | – | – | – | – | – | 12.5 mg/L (≈ 25.7 µM) | 3.13 mg/L (≈ 6.43 µM) | 12.5 mg/L (≈ 25.7 µM) | 50 mg/L (≈ 103 µM) | > 50 mg/L | 542 mg/L (≈ 1110 µM) | 554 mg/L (≈ 1140 µM) |
| O=C(Nc1ccc(-c2ccnc(N3CCNCC3)c2)cc1F)Nc1ccc(-c2ccnc(N3CCNCC3)c2)cc1F [Compound 142] | 12.5 mg/L (≈ 21.9 µM) | 100 mg/L (≈ 175 µM) | – | 25 mg/L (≈ 43.8 µM) | 25 mg/L (≈ 43.8 µM) | – | 105 mg/L (≈ 184 µM) | – | – | – | – | – | – | – | – | – |
| N=C(N)NCCc1cc(CCNC(=N)N)cc(-c2cccc(-c3cc(CCNC(=N)N)cc(CCNC(=N)N)c3)c2)c1 [Compound 116] | – | – | – | – | – | – | – | – | – | 6.25 mg/L (≈ 11 µM) | 6.25 mg/L (≈ 11 µM) | 25 mg/L (≈ 43.8 µM) | 25 mg/L (≈ 43.8 µM) | 25 mg/L (≈ 43.8 µM) | 676 mg/L (≈ 1180 µM) | 974 mg/L (≈ 1710 µM) |
| O=C(c1cc(C(=O)N2CCNCC2)cc(-c2ccc3sc4ccc(-c5cc(C(=O)N6CCNCC6)cc(C(=O)N6CCNCC6)c5)cc4c3c2)c1)N1CCNCC1 [Compound 170] | – | – | – | – | – | – | – | – | – | > 100 mg/L | > 100 mg/L | > 100 mg/L | > 100 mg/L | > 100 mg/L | 436 mg/L (≈ 555 µM) | > 1000 mg/L |
| NCCCOc1cc(OCCCN)cc(-c2ccc3sc4ccc(-c5cc(OCCCN)c(OCCCN)c(OCCCN)c5)cc4c3c2)c1 [Compound 182] | – | – | – | – | – | – | – | – | – | 6.25 mg/L (≈ 8.9 µM) | 1.56 mg/L (≈ 2.22 µM) | 6.25 mg/L (≈ 8.9 µM) | 12.5 mg/L (≈ 17.8 µM) | 25 mg/L (≈ 35.6 µM) | 78.2 mg/L (≈ 111 µM) | 173 mg/L (≈ 246 µM) |
